According to PubChem BioAssay (NCI):
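1) Cells in 96-well plates. 2) Compound, 48 h, 5 concentrations. 3) Linear interpolation between surrounding doses. 4) Unreached endpoint = highest concentration. The concentration for full growth arrest is given as TGI.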

Experiments:
Test in all cases: NCI tumour cell line growth inhibition, 48 h
[1] = system: COLO 205 colon
[2] = system: SNB-19 CNS
[3] = system: RPMI-8226 leukemia
[4] = system: MCF7 breast
[5] = system: UACC-62 melanoma
[6] = system: A549 NSCLC
[7] = system: NCI/ADR-RES ovarian
[8] = system: SK-MEL-28 melanoma
[9] = system: RXF 393 renal
[10] = system: BT-549 breast
[11] = system: MDA-N
[12] = system: KM12 colon
[13] = system: LOX IMVI melanoma
[14] = system: HOP-62 NSCLC
[15] = system: NCI-H460 lung
[16] = system: SK-MEL-2 melanoma
[17] = system: CAKI-1 renal
[18] = system: U251 CNS
[19] = system: A498 renal
[20] = system: ACHN renal
[21] = system: HT29 colon
[22] = system: SF-539 CNS
[23] = system: MALME-3M melanoma
[24] = system: SNB-75 CNS
[25] = system: EKVX NSCLC
[26] = system: HCC-2998 colon
[27] = system: NCI-H23 lung
[28] = system: SW-620 colon
[29] = system: HCT-15 colon
[30] = system: UACC-257 melanoma
[31] = system: OVCAR-5 ovarian
[32] = system: 786-0 renal
[33] = system: NCI-H522 lung
[34] = system: HS 578T breast
[35] = system: M14 melanoma
[36] = system: HOP-92 NSCLC
[37] = system: SN12C renal
[38] = system: MDA-MB-435
[39] = system: CCRF-CEM leukemia
[40] = system: SF-268 CNS
[41] = system: DU-145 prostate
[42] = system: K-562 leukemia
[43] = system: OVCAR-4 ovarian
[44] = system: HCT-116 colon
[45] = system: MOLT-4 leukemia
[46] = system: MDA-MB-231 breast
[47] = system: TK-10 renal
[48] = system: T-47D breast
[49] = system: HL-60(TB) leukemia
[50] = system: OVCAR-3 ovarian
[51] = system: OVCAR-8 ovarian
[52] = system: SF-295 CNS
[53] = system: IGROV1 ovarian
[54] = system: SK-OV-3 ovarian
[55] = system: PC-3 prostate
[56] = system: SR leukemia
[57] = system: SK-MEL-5 melanoma
[58] = system: UO-31 renal
[59] = system: NCI-H226 lung

COc1ccc(OC/C(N)=N/NC(=O)c2ccncc2)cc1
TGI [1]: > 100 µM | TGI [2]: > 100 µM | TGI [3]: > 100 µM | TGI [4]: > 100 µM | TGI [5]: > 100 µM | TGI [6]: > 100 µM | TGI [7]: > 100 µM | TGI [8]: > 100 µM | TGI [9]: > 100 µM | TGI [10]: > 100 µM | TGI [11]: > 100 µM | TGI [12]: > 100 µM | TGI [13]: > 100 µM | TGI [14]: > 100 µM | TGI [15]: > 100 µM | TGI [16]: > 100 µM | TGI [17]: > 100 µM | TGI [18]: > 100 µM | TGI [19]: > 100 µM | TGI [20]: > 100 µM | TGI [21]: > 100 µM | TGI [22]: > 100 µM | TGI [23]: > 100 µM | TGI [24]: > 100 µM | TGI [25]: > 100 µM | TGI [26]: > 100 µM | TGI [27]: > 100 µM | TGI [28]: > 100 µM | TGI [29]: > 100 µM | TGI [30]: > 100 µM | TGI [31]: > 100 µM | TGI [32]: > 100 µM | TGI [33]: > 100 µM | TGI [34]: > 100 µM | TGI [35]: > 100 µM | TGI [36]: > 100 µM | TGI [37]: > 100 µM | TGI [38]: > 100 µM | TGI [39]: > 100 µM | TGI [40]: > 100 µM | TGI [41]: > 100 µM | TGI [42]: > 100 µM | TGI [43]: > 100 µM | TGI [44]: > 100 µM | TGI [45]: > 100 µM | TGI [46]: > 100 µM | TGI [47]: > 100 µM | TGI [48]: > 100 µM | TGI [49]: > 100 µM | TGI [50]: > 100 µM | TGI [51]: > 100 µM | TGI [52]: > 100 µM | TGI [53]: > 100 µM | TGI [54]: > 100 µM | TGI [55]: > 100 µM

CCCN1C(=O)CN(S(=O)(=O)c2ccc(Cl)cc2)C1=O
TGI [1]: > 100 µM | TGI [2]: > 100 µM | TGI [3]: > 100 µM | TGI [4]: > 100 µM | TGI [5]: > 100 µM | TGI [6]: > 100 µM | TGI [8]: > 100 µM | TGI [9]: > 100 µM | TGI [10]: > 100 µM | TGI [11]: > 100 µM | TGI [56]: > 100 µM | TGI [12]: > 100 µM | TGI [13]: > 100 µM | TGI [14]: > 100 µM | TGI [15]: > 100 µM | TGI [16]: > 100 µM | TGI [17]: > 100 µM | TGI [18]: > 100 µM | TGI [19]: > 100 µM | TGI [20]: > 100 µM | TGI [21]: > 100 µM | TGI [22]: > 100 µM | TGI [23]: > 100 µM | TGI [24]: > 100 µM | TGI [25]: > 100 µM | TGI [26]: > 100 µM | TGI [27]: > 100 µM | TGI [28]: > 100 µM | TGI [29]: > 100 µM | TGI [30]: > 100 µM | TGI [57]: > 100 µM | TGI [31]: > 100 µM | TGI [32]: > 100 µM | TGI [33]: > 100 µM | TGI [34]: > 100 µM | TGI [35]: > 100 µM | TGI [36]: > 100 µM | TGI [37]: > 100 µM | TGI [38]: > 100 µM | TGI [39]: > 100 µM | TGI [40]: > 100 µM | TGI [41]: > 100 µM | TGI [42]: > 100 µM | TGI [43]: > 100 µM | TGI [44]: > 100 µM | TGI [58]: > 100 µM | TGI [46]: > 100 µM | TGI [47]: > 100 µM | TGI [59]: > 100 µM | TGI [48]: > 100 µM | TGI [49]: > 100 µM | TGI [50]: > 100 µM | TGI [52]: > 100 µM | TGI [53]: > 100 µM | TGI [54]: > 100 µM | TGI [55]: > 100 µM

CC(C)(CCCCC(C)(C)NC1=NCCO1)NC1=NCCO1
TGI [1]: > 10 µM | TGI [2]: > 10 µM | TGI [3]: > 10 µM | TGI [4]: > 10 µM | TGI [5]: > 10 µM | TGI [6]: > 10 µM | TGI [7]: > 10 µM | TGI [8]: > 10 µM | TGI [9]: > 10 µM | TGI [11]: > 10 µM | TGI [56]: > 10 µM | TGI [12]: > 10 µM | TGI [13]: > 10 µM | TGI [14]: > 10 µM | TGI [15]: > 10 µM | TGI [16]: > 10 µM | TGI [17]: > 10 µM | TGI [18]: > 10 µM | TGI [19]: > 10 µM | TGI [20]: > 10 µM | TGI [21]: > 10 µM | TGI [22]: > 10 µM | TGI [23]: > 10 µM | TGI [24]: > 10 µM | TGI [25]: > 10 µM | TGI [26]: > 10 µM | TGI [27]: > 10 µM | TGI [28]: > 10 µM | TGI [29]: > 10 µM | TGI [57]: > 10 µM | TGI [31]: > 10 µM | TGI [33]: > 10 µM | TGI [34]: > 10 µM | TGI [35]: > 10 µM | TGI [37]: > 10 µM | TGI [38]: > 10 µM | TGI [39]: > 10 µM | TGI [40]: > 10 µM | TGI [41]: > 10 µM | TGI [42]: > 10 µM | TGI [43]: > 10 µM | TGI [44]: > 10 µM | TGI [58]: > 10 µM | TGI [45]: > 10 µM | TGI [46]: > 10 µM | TGI [47]: > 10 µM | TGI [59]: > 10 µM | TGI [48]: > 10 µM | TGI [49]: > 10 µM | TGI [50]: > 10 µM | TGI [51]: > 10 µM | TGI [52]: > 10 µM | TGI [53]: > 10 µM | TGI [54]: > 10 µM | TGI [55]: > 10 µM

O=c1c2sc3ccccc3sc=2c(=O)c2c(Cl)c(Cl)c(Cl)c(Cl)c12
TGI [1]: > 100 µM | TGI [2]: > 100 µM | TGI [3]: > 100 µM | TGI [4]: > 100 µM | TGI [5]: > 100 µM | TGI [6]: > 100 µM | TGI [7]: > 100 µM | TGI [8]: > 100 µM | TGI [9]: > 100 µM | TGI [10]: > 100 µM | TGI [11]: > 100 µM | TGI [56]: > 100 µM | TGI [12]: > 100 µM | TGI [14]: > 100 µM | TGI [15]: > 100 µM | TGI [16]: > 100 µM | TGI [17]: > 100 µM | TGI [18]: > 100 µM | TGI [19]: > 100 µM | TGI [20]: > 100 µM | TGI [21]: > 100 µM | TGI [23]: > 100 µM | TGI [24]: > 100 µM | TGI [25]: > 100 µM | TGI [26]: > 100 µM | TGI [27]: > 100 µM | TGI [28]: > 100 µM | TGI [29]: > 100 µM | TGI [30]: > 100 µM | TGI [57]: > 100 µM | TGI [31]: > 100 µM | TGI [32]: > 100 µM | TGI [33]: > 100 µM | TGI [34]: > 100 µM | TGI [35]: > 100 µM | TGI [37]: > 100 µM | TGI [38]: > 100 µM | TGI [39]: > 100 µM | TGI [40]: > 100 µM | TGI [41]: > 100 µM | TGI [42]: > 100 µM | TGI [43]: > 100 µM | TGI [44]: > 100 µM | TGI [58]: > 100 µM | TGI [45]: > 100 µM | TGI [46]: > 100 µM | TGI [47]: > 100 µM | TGI [59]: > 100 µM | TGI [48]: > 100 µM | TGI [50]: > 100 µM | TGI [51]: > 100 µM | TGI [52]: > 100 µM | TGI [53]: > 100 µM | TGI [54]: > 100 µM | TGI [55]: > 100 µM
